Laboratory results: patent publication US20090177450A1, “SYSTEMS AND METHODS FOR PREDICTING RESPONSE OF BIOLOGICAL SAMPLES” (Lawrence Berkeley National Laboratory, priority 2007, published 2009)
Where two headings read alike, the source gives them in different places.

Legend:
[1] = test system: ERBB2-positive tumors from human cancer patients; assay: Progression free survival in a tumor panel stratified by the 6-gene computational model (Example 7); assay type: in vivo; conditions: sensitive if predicted log(GI50)≦0.4
Text: The computational model described in Example 6 was applied to the mRNA expression levels obtained to predict the Lapatinib sensitivity status of the tumors. […] The progression free survival of those predicted responders (sensitive) were compared to the non-responders (resistant).

breast cancer cell lines [2] = test system: breast cancer cell lines
[3] = test system: ERBB2-positive patients with advanced or metastatic breast cancer
Procedure: Quantitative mRNA levels of the transcripts were measured relative to GAPDH using the branch capture (BC) assay from Panomics using RNA extracted from single 10 micrometer FFPE sections from each tumor. Adjacent H&E stained sections were analyzed for tumor content and samples with <50% tumor were excluded. Transcript levels measured using the Panomics BC assay were normalized to Affymetrix microarray equivalent levels using a mapping function developed using measurements of the transcript levels measured in 22 breast cancer cell lines using both platforms. These functions were then applied to Panomics BC transcript levels for tumor samples to obtain Affymetrix-equivalent transcript levels for each of the EERBB2, GRB7, CRK, ACOT9, CBX5, and DDX5 genes. The weights in the 6-gene predictive model for the tumors were the same as determined from cell lines.
EGF20009 was a randomized, first line phase II trial in ERBB2-positive patients with advanced or metastatic breast cancer in which patients received Lapatinib as monotherapy. 138 patients with ERBB2-amplified tumors were randomly assigned to one of two Lapatinib dose cohorts: 69 patients received Lapatinib 1,500 mg once daily, and the remaining 69 patients received Lapatinib 500 mg twice daily. Samples from patients treated at both levels of Lapatinib were included in the study and patients were stratified into three groups based on tumor ERBB2 mRNA expression levels measured using the Panomics BC assay. Patients with the highest ERBB2 expression levels were assigned to a group designated as sensitive, patients with the lowest ERBB2 expression levels were assigned to a group designated as resistant and the remaining patients were assigned to an intermediate group (n=53). Patients whose tumors assigned to the intermediate group were further stratified into resistant and sensitive classes by using the 6-gene predictor set and a single response predictor CBX5, respectively.

breast cancer cell lines [4] = assay: cells; conditions: Homo sapiens

**Q.** How did the “median survival of predicted responders compared to non-responders” value [1] turn out when CS(=O)(=O)CCNCc1ccc(-c2ccc3ncnc(Nc4ccc(OCc5cccc(F)c5)c(Cl)c4)c3c2)o1 [Lapatinib] was run?
**A.** longer

**Q.** And the “dynamic range of the GI50 response data” value (breast cancer cell lines [2]; across 40 breast cancer cell lines)?
**A.** > 3 logs

**Q.** What about the Sensitivity (breast cancer cell lines [2]; cell line AU565 found sensitive to Lapatinib) of the same compound?
**A.** Yes

**Q.** And the Sensitivity (breast cancer cell lines [2]; cell line BT474 found sensitive to Lapatinib)?
**A.** Yes

**Q.** What about the Sensitivity (breast cancer cell lines [2]; cell line HCC202 found sensitive to Lapatinib) of the same compound?
**A.** Yes

**Q.** What about the Sensitivity (breast cancer cell lines [2]; cell line HCC1569 found sensitive to Lapatinib) of the same compound?
**A.** Yes

**Q.** And the Sensitivity (breast cancer cell lines [2]; cell line HCC1954 found sensitive to Lapatinib)?
**A.** Yes

**Q.** What about the Sensitivity (breast cancer cell lines [2]; cell line SKBR3 found sensitive to Lapatinib) of the same compound?
**A.** Yes

**Q.** And the Sensitivity (breast cancer cell lines [2]; cell line SUM149PT found sensitive to Lapatinib)?
**A.** Yes

**Q.** And the Sensitivity (breast cancer cell lines [2]; cell line UACC812 found sensitive to Lapatinib)?
**A.** Yes

**Q.** And the “hazards ratio (HR), predicted sensitive vs predicted resistant patients” value ([3]; intermediate ERBB2 expression group (n=53), 6-gene predictor set)?
**A.** 0.383

**Q.** And the “hazards ratio (HR), predicted sensitive vs predicted resistant patients” value ([3]; intermediate group, CBX5 single predictor)?
**A.** 0.25

**Q.** And the median survival ([3]; intermediate group, patients predicted to be resistant, CBX5 single predictor)?
**A.** 61 days

**Q.** What about the median survival ([3]; intermediate group, patients predicted to be sensitive, CBX5 single predictor) of the same compound?
**A.** 176 days

**Q.** What about the response rate ([3]; patients predicted to be resistant, CBX5 single predictor) of the same compound?
**A.** 17%

**Q.** And the response rate ([3]; patients predicted to be sensitive, CBX5 single predictor)?
**A.** 56%

**Q.** And the GI50 (breast cancer cell lines [4]; AU565, read-out: log10(GI50), cell line AU565 (converted), Training sample)?
**A.** 0.0234 µM

**Q.** And the GI50 (breast cancer cell lines [4]; BT-474, read-out: log10(GI50), cell line BT474 (converted), Training sample)?
**A.** 0.03 µM

**Q.** What about the GI50 (breast cancer cell lines [4]; BT-483, read-out: log10(GI50), cell line BT483 (converted), Training sample) of the same compound?
**A.** 1.89 µM

**Q.** And the GI50 (breast cancer cell lines [4]; BT-549, read-out: log10(GI50), cell line BT549 (converted), Training sample)?
**A.** 25.1 µM

**Q.** What about the GI50 (breast cancer cell lines [4]; CAMA-1, read-out: log10(GI50), cell line CAMA1 (converted), Test sample) of the same compound?
**A.** 32.1 µM

**Q.** What about the GI50 (breast cancer cell lines [4]; HBL-100, read-out: log10(GI50), cell line HBL100 (converted), Training sample) of the same compound?
**A.** 6.33 µM

**Q.** And the GI50 (breast cancer cell lines [4]; HCC38, read-out: log10(GI50), cell line HCC38 (converted), Training sample)?
**A.** 5 µM

**Q.** And the GI50 (breast cancer cell lines [4]; HCC70, read-out: log10(GI50), cell line HCC70 (converted), Test sample)?
**A.** 0.5 µM

**Q.** And the GI50 (breast cancer cell lines [4]; HCC202, read-out: log10(GI50), cell line HCC202 (converted), Test sample)?
**A.** 0.015 µM

**Q.** What about the GI50 (breast cancer cell lines [4]; HCC1143, read-out: log10(GI50), cell line HCC1143 (converted), Training sample) of the same compound?
**A.** 3.04 µM

**Q.** And the GI50 (breast cancer cell lines [4]; HCC1187, read-out: log10(GI50), cell line HCC1187 (converted), Test sample)?
**A.** 7.35 µM

**Q.** And the GI50 (breast cancer cell lines [4]; HCC1428, read-out: log10(GI50), cell line HCC1428 (converted), Test sample)?
**A.** 10 µM

**Q.** What about the GI50 (breast cancer cell lines [4]; HCC1500, read-out: log10(GI50), cell line HCC1500 (converted), Training sample) of the same compound?
**A.** 1.6 µM

**Q.** And the GI50 (breast cancer cell lines [4]; HCC1569, read-out: log10(GI50), cell line HCC1569 (converted), Training sample)?
**A.** 0.1 µM

**Q.** And the GI50 (breast cancer cell lines [4]; HCC1937, read-out: log10(GI50), cell line HCC1937 (converted), Training sample)?
**A.** 3 µM

**Q.** And the GI50 (breast cancer cell lines [4]; HCC1954, read-out: log10(GI50), cell line HCC1954 (converted), Training sample)?
**A.** 0.3 µM

**Q.** And the GI50 (breast cancer cell lines [4]; Hs-578T, read-out: log10(GI50), cell line HS578T (converted), Training sample)?
**A.** 10 µM

**Q.** And the GI50 (breast cancer cell lines [4]; MCF7, read-out: log10(GI50), cell line MCF7 (converted), Training sample)?
**A.** 6 µM

**Q.** What about the GI50 (breast cancer cell lines [4]; MCF-10A, read-out: log10(GI50), cell line MCF10A (converted), Training sample) of the same compound?
**A.** 3 µM

**Q.** And the GI50 (breast cancer cell lines [4]; MCF-12A, read-out: log10(GI50), cell line MCF12A (converted), Test sample)?
**A.** 4 µM

**Q.** What about the GI50 (breast cancer cell lines [4]; MDA-MB-157, read-out: log10(GI50), cell line MDAMB157 (converted), Training sample) of the same compound?
**A.** 10 µM

**Q.** What about the GI50 (breast cancer cell lines [4]; MDA-MB-231, read-out: log10(GI50), cell line MDAMB231 (converted), Training sample) of the same compound?
**A.** 10 µM

**Q.** What about the GI50 (breast cancer cell lines [4]; MDA-MB-361, read-out: log10(GI50), cell line MDAMB361 (converted), Training sample) of the same compound?
**A.** 1.2 µM

**Q.** What about the GI50 (breast cancer cell lines [4]; MDA-MB-435, read-out: log10(GI50), cell line MDAMB435 (converted), Training sample) of the same compound?
**A.** 10 µM

**Q.** And the GI50 (breast cancer cell lines [4]; MDA-MB-436, read-out: log10(GI50), cell line MDAMB436 (converted), Training sample)?
**A.** 30 µM

**Q.** And the GI50 (breast cancer cell lines [4]; MDA-MB-453, read-out: log10(GI50), cell line MDAMB453 (converted), Training sample)?
**A.** 3 µM

**Q.** And the GI50 (breast cancer cell lines [4]; MDA-MB-468, read-out: log10(GI50), cell line MDAMB468 (converted), Training sample)?
**A.** 10 µM

**Q.** What about the GI50 (breast cancer cell lines [4]; SK-BR-3, read-out: log10(GI50), cell line SKBR3 (converted), Test sample) of the same compound?
**A.** 0.03 µM

**Q.** What about the GI50 (breast cancer cell lines [4]; SUM52PE, read-out: log10(GI50), cell line SUM52PE (converted), Training sample) of the same compound?
**A.** 15 µM

**Q.** And the GI50 (breast cancer cell lines [4]; SUM149PT, read-out: log10(GI50), cell line SUM149PT (converted), Training sample)?
**A.** 0.3 µM

**Q.** What about the GI50 (breast cancer cell lines [4]; SUM185PE, read-out: log10(GI50), cell line SUM185PE (converted), Training sample) of the same compound?
**A.** 12 µM

**Q.** What about the GI50 (breast cancer cell lines [4]; SUM-159-PT, read-out: log10(GI50), cell line SUM159PT (converted), Training sample) of the same compound?
**A.** 3 µM

**Q.** And the GI50 (breast cancer cell lines [4]; T47D, read-out: log10(GI50), cell line T47D (converted), Test sample)?
**A.** 25 µM

**Q.** What about the GI50 (breast cancer cell lines [4]; UACC-812, read-out: log10(GI50), cell line UACC812 (converted), Training sample) of the same compound?
**A.** 0.015 µM

**Q.** What about the GI50 (breast cancer cell lines [4]; ZR-75-1, read-out: log10(GI50), cell line ZR75.1 (converted), Test sample) of the same compound?
**A.** 20 µM

**Q.** And the GI50 (breast cancer cell lines [4]; ZR-75B, read-out: log10(GI50), cell line ZR75B (converted), Test sample)?
**A.** 8 µM

**Q.** What about the GI50 (breast cancer cell lines [4]; read-out: average log(GI50), training set of 30 breast cancer cell-lines (converted)) of the same compound?
**A.** 2.51 µM

**Q.** What about the GI50 (breast cancer cell lines [4]; read-out: log10(GI50), cell line 600MPE (converted), Training sample) of the same compound?
**A.** 8 µM

**Q.** And the GI50 (breast cancer cell lines [4]; read-out: log10(GI50), cell line HCC2185 (converted), Training sample)?
**A.** 8 µM

**Q.** What about the GI50 (breast cancer cell lines [4]; read-out: log10(GI50), cell line HCC3153 (converted), Training sample) of the same compound?
**A.** 10 µM

**Q.** And the GI50 (breast cancer cell lines [4]; read-out: log10(GI50), cell line LY2 (converted), Training sample)?
**A.** 8 µM
